Source: US20190284192A1, “NITROGENOUS MACROCYCLIC COMPOUND, PREPARATION METHOD THEREFOR, PHARMACEUTICAL COMPOSITION AND APPLICATION THEREOF” (LUOXIN PHARMACEUTICAL (SHANGHAI) CO., LTD., priority 2016, published 2019)
Counter-ions that a name gives are not always drawn. Like-named read-outs stand apart in the source and are kept apart here.

Experiments:
[1] = target: T1, BRD4 (BD1) (Homo sapiens, UniProt O60885); assay: BRD4 (BD1) bromodomain binding, HTRF; conditions: 2 h incubation at r.t.
T1 construct: Each member comprises two tandem bromodomains (BD1 and BD2) for recognizing the acetylated lysine residues

[2] = target: T2, BRD4 (BD2) (Homo sapiens, UniProt O60885); assay: BRD4 (BD2) bromodomain binding, HTRF; conditions: 2 h incubation at r.t.
T2 construct: Each member comprises two tandem bromodomains (BD1 and BD2) for recognizing the acetylated lysine residues

[3] = system: MV-4-11 cells; assay: Inhibitory effect on MV-4-11 cells (CellTiter-Glo); assay type: cell-based; conditions: Homo sapiens, read-out: MV-4-11
[4] = MV4-11, 72 hours, CellTiter-Glo

| Structure (SMILES) | IC50 [1] | IC50 [2] | IC50 [3, 4] | IC50 ([3]; MV4-11, 72 h) |
| --- | --- | --- | --- | --- |
| CC(C)NC(=O)C[C@@H]1N=C(c2ccc(Cl)cc2)c2ccccc2-c2cn(C)c(=O)cc21 [Compound 4032, (S)-2-(7-(4-chlorophenyl)-2-methyl-3-oxo-3,5-dihydro-2H-benzo[c]pyrido[3,4-e]azepin-5-yl)-N-isopropylacetamide] | 3 nM | 2 nM | 6 nM |  |
| CCC(=O)Nc1cc2c(cc1F)C(c1ccc(F)cc1)=N[C@@H](C)c1cc(=O)n(C)cc1-2 [Compound 4083, (S)—N-(9-fluoro-7-(4-flurophenyl)-2,5-dimethyl-3-oxo-3,5-dihydro-2H-benzo[c]pyrido[3,4-e]azepin-10-yl)propanamide] | 8 nM | 4 nM | 31 nM |  |
| C[C@@H]1N=C(c2ccc(F)cc2)c2ccc(CS(C)(=O)=O)cc2-c2cn(C)c(=O)cc21 [Compound 4059, (S)-7-(4-flurophenyl)-2,5-dimethyl-10-((dimethylfulfone)methyl)-2,5-dihydro-3H-benzo[c]pyrido[3,4-e]azepin-3-ketone] | 2 nM | 1 nM | 7 nM |  |
| CCNC(=O)C[C@@H]1N=C(c2ccc(F)cc2)c2c(ccc(OC)c2F)-c2cn(C)c(=O)cc21 [Compound 4035, (S)—N-ethyl-2-(8-fluoro-7-(4-flurophenyl)-9-methoxyl-2-methyl-3-oxo-3,5-dihydro-2H-benzo[c]pyrido[3,4-e]azepin-5-yl)acetamide] | 3 nM | 1 nM |  |  |
| CCS(=O)(=O)Cc1ccc2c(c1)-c1cn(C)c(=O)cc1CN=C2c1ccc(F)c(OC)c1 [Compound 4089, 10-((ethylsulfonyl)methyl)-7-(4-fluoro-3-methoxylphenyl)-2-methyl-2,5-dihydro-3H-benzo[c]pyrido[3,4-e]azepin-3-ketone] | 8 nM | 4 nM | 108 nM |  |
| CCNS(=O)(=O)c1ccc2c(c1)-c1cn(C)c(=O)cc1[C@H](C)N=C2c1ccc(F)cc1 [Compound 4052, (S)—N-ethyl-7-(4-flurophenyl)-2,5-dimethyl-3-oxo-3,5-dihydro-2H-benzo[c]pyrido[3,4-e]azepin-10-sulfamide] | 6 nM | 2 nM | 55 nM |  |
| C[C@@H]1N=C(c2ccc(F)cc2)c2cc(F)c(N)cc2-c2cn(C)c(=O)cc21 [Compound 4070, (S)-10-amino-9-fluoro-7-(4-flurophenyl)-2,5-dimethyl-2,5-dihydro-3H-benzo[c]pyrido[3,4-e]azepin-3-ketone] | 3 nM | 2 nM |  | 16 nM |
| CCS(=O)(=O)Nc1cc2c(cc1Cl)C(c1ccc(F)cc1)=N[C@@H](C)c1cc(=O)n(C)cc1-2 [Compound 4058] | 1 nM | 1 nM |  | 1 nM |
| CCS(=O)(=O)Cc1ccc2c(c1)-c1cn(C)c(=O)cc1[C@H](CCO)N=C2c1ccc(F)cc1 [Compound 4088, (S)-10-((ethylsulfonyl)methyl)-7-(4-flurophenyl)-5-(2-hydroxyethyl)-2-methyl-2,5-dihydro-3H-benzo[c]pyrido[3,4-e]azepin-3-ketone] | 3 nM | 1 nM | 26 nM |  |
| CCS(=O)(=O)Nc1cc2c(cc1Cl)C(c1ccc(F)cc1)=N[C@@H](C1CC1)c1cc(=O)n(C)cc1-2 [Compound 4077, (S)—N-(9-chloro-5-cyclopropyl-7-(4-flurophenyl)-2-methyl-3-oxo-3,5-dihydro-2H-benzo[c]pyrido[3,4-e]azepin-10-yl)ethylsulfonamide] | 1 nM | 0.4 nM | 0.4 nM |  |
| CC[C@@H]1N=C(c2ccc(Cl)cc2)c2ccc(CS(=O)(=O)CC)cc2-c2cn(C)c(=O)cc21 [Compound 4047, (S)-5-ethyl-10-((ethylsulfonyl)methyl)-7-(4-chlorophenyl)-2-methyl-2,5-dihydro-3H-benzo[c]pyrido[3,4-e]azepin-3-ketone] | 0.4 nM | 1 nM | 2 nM |  |
| CCS(=O)(=O)Cc1cc2c(cc1Cl)C(c1ccc(F)cc1)=N[C@@H](C)c1cc(=O)n(C)cc1-2 [Compound 4086, (S)-9-chloro-10-((ethylsulfonyl)methyl)-7-(4-flurophenyl)-2,5-dimethyl-2,5-dihydro-3H-benzo[c]pyrido[3,4-e]azepin-3-ketone] | 2 nM | 1 nM | 3 nM |  |
| CNS(=O)(=O)Nc1ccc2c(c1)-c1cn(C)c(=O)cc1[C@H](C)N=C2c1ccc(F)cc1 [Compound 4050, (S)—N-(7-(4-flurophenyl)-2,5-dimethyl-3-oxo-3,5-dihydro-2H-benzo[c]pyrido[3,4-e]azepin-10-yl)methylamine sulfonamide] | 17 nM | 9 nM |  |  |
| CCS(=O)(=O)Cc1ccc2c(c1)-c1cn(C)c(=O)cc1[C@H](C)N=C2c1ccc(OC)cc1 [Compound 4053, (S)-10-((ethylsulfonyl)methyl)-7-(4-methoxylphenyl)-2,5-dimethyl-2,5-dihydro-3H-benzo[c]pyrido[3,4-e]azepin-3-ketone] | 2 nM | 1 nM | 7 nM |  |
| CCNC(=O)C[C@@H]1N=C(c2ccc(F)cc2)c2cc(OC)c(F)cc2-c2cn(C)c(=O)cc21 [Compound 4036, (S)—N-ethyl-2-(10-fluoro-7-(4-flurophenyl)-9-methoxyl-2-methyl-3-oxo-3,5-dihydro-2H-benzo[c]pyrido[3,4-e]azepin-5-yl)acetamide] | 5 nM | 2 nM |  |  |
| CCS(=O)(=O)Cc1ccc2c(c1)-c1cn(C)c(=O)cc1C1(CC1)N=C2c1ccc(F)cc1 [Compound 4041, 10-((ethylsulfonyl)methyl)-7-(4-flurophenyl)-2-methyl spiro[benzo[c]pyrido[3,4-e]azepin-5,1′-cyclopropane]-3(2H)-ketone] | 12 nM | 12 nM |  |  |
| CCS(=O)(=O)Cc1ccc2c(c1)-c1nn(C)c(=O)cc1C(C)N=C2c1ccc(F)cc1Cl (centres unmarked) [Compound 4097, 7-(2-chloro-4-flurophenyl)-10-((ethylsulfonyl)methyl)-2,5-dimethyl-2,5-dihydro-3H-benzo[c]pyridazino[3,4-e]azepin-3-ketone] | 20 nM | 3 nM |  |  |
| CNS(=O)(=O)Cc1ccc2c(c1)-c1cn(C)c(=O)cc1N(C)N=C2c1ccc(F)cc1 [Compound 4099, 1-(7-(4-flurophenyl)-2,5-dimethyl-3-oxo-3,5-dihydro-2H-benzo[e]pyrido[4,3-c][1,2]diazepin-10-yl)-N-methylmethane sulfamide] | 2 nM | 0.9 nM |  |  |
| Cn1cc2c(cc1=O)CN=C(c1ccc(F)cc1Cl)c1ccc(CS(C)(=O)=O)cc1-2 [Compound 4098, 7-(2-chloro-4-flurophenyl)-2-methyl-10-((dimethylfulfone)methyl)-2,5-dihydro-3H-benzo[c]pyrido[3,4-e]azepin-3-ketone] | 22 nM | 3 nM |  |  |
| CCS(=O)(=O)Cc1ccc2c(c1)-c1cn(C)c(=O)cc1[C@H](C)N=C2c1ccc(OC)c(F)c1 [Compound 4104, (S)-10-((ethylsulfonyl)methyl)-7-(3-fluoro-4-methoxylphenyl)-2,5-dimethyl-2,5-dihydro-3H-benzo[c]pyrido[3,4-e]azepin-3-ketone] | 2 nM | 1 nM |  |  |
| CCS(=O)(=O)Cc1ccc2c(c1)-c1cn(C)c(=O)cc1CN=C2c1cc(OC)c(F)cc1Cl [Compound 4096, 7-(2-chloro-4-fluoro-5-methoxylphenyl)-10-((ethylsulfonyl)methyl)-2-methyl-2,5-dihydro-3H-benzo[c]pyrido[3,4-e]azepin-3-ketone] | 44 nM | 4 nM |  |  |
| CNS(=O)(=O)Cc1ccc2c(c1)-c1cn(C)c(=O)cc1[C@H](C)N=C2c1ccc(F)c(OC)c1 [Compound 4103, (S)-1-(7-(4-fluoro-3-methoxylphenyl)-2,5-dimethyl-3-oxo-3,5-dihydro-2H-benzo[c]pyrido[3,4-e]azepin-10-yl)-N-methylmethane sulfamide] | 2 nM | 0.6 nM |  |  |
| CCS(=O)(=O)Cc1ccc2c(c1)-c1cn(C)c(=O)cc1[C@H](C)N=C2c1cc(OC)c(F)cc1Cl [Compound 4102, (S)-7-(2-chloro-4-fluoro-5-methoxylphenyl)-10-((ethylsulfonyl)methyl)-2,5-dimethyl-2,5-dihydro-3H-benzo[c]pyrido[3,4-e]azepin-3-ketone] | 5 nM | 0.8 nM |  |  |
| CCS(=O)(=O)Cc1ccc2c(c1)C(c1ccc(F)cc1)=NCc1cc(=O)n(C)cc1-2 [Compound 4039, 9-((ethylsulfonyl)methyl)-7-(4-flurophenyl)-2-methyl-2,5-dihydro-3H-benzo[c]pyrido[3,4-e]azepin-3-ketone] | 163 nM | 204 nM |  |  |
| CCS(=O)(=O)Cc1ccc2c(c1)-c1cn(C)c(=O)cc1[C@H](C)N=C2c1ccc(F)cc1Cl [Compound 4101, (S)-7-(2-chloro-4-flurophenyl)-10-((ethylsulfonyl)methyl)-2,5-dimethyl-2,5-dihydro-3H-benzo[c]pyrido[3,4-e]azepin-3-ketone] | 3 nM | 0.7 nM |  |  |
| Cn1cc2c(cc1=O)CNC(c1ccc(F)cc1)c1ccc(CS(C)(=O)=O)cc1-2 (centres unmarked) [Compound 4008, 7-(4-fluorophenyl)-2-methyl-10-(methylsulfonemethyl)-6,7-dihydro-2H-benzo[c]pyrido[3,4-e]azepin-3(5H)-ketone formate] | 113 nM | 28 nM |  |  |
| CCS(=O)(=O)Cc1ccc2c(c1)-c1cn(C)c(=O)cc1[C@H](C)N=C2c1ccncc1 [Compound 4105, (S)-10-((ethylsulfonyl)methyl)-2,5-dimethyl-7-(pyridin-4-yl)-2,5-dihydro-3H-benzo[c]pyrido[3,4-e]azepin-3-ketone] | 2 nM | 1 nM |  |  |
| Cn1cc2c(c1C#N)CCN(c1ccc(F)cc1)c1ccc(CS(C)(=O)=O)cc1-2 [Compound 4004, 6-(4-Fluorophenyl)-2-methyl-9-(methylsulfonylmethyl)-2,4,5,6-tetrahydrobenzo[b]pyrrolo[3,4-d]azepin-3-nitrile] | 109 nM | 184 nM |  |  |
